These results are taken from patent publication US11840526B2, “Compounds and method for preparing the same” (BEIJING GRAND JOHAMU PHARMACEUTICAL COMPANY, LTD., priority 2022, dated 2023).

This series in a line: Powder characteristics (Carr index, anti-caking property, fluidity) by intelligent powder comprehensive characteristic tester. It is filed as physicochemical. Details: key to Fluidity: Good: “good” means good solid state and good fluidity, which is favorable for formulation development; Less good: “less good” means average fluidity; Poor: “poor” means poor fluidity, which cannot be used for formulation development; key to Anti-caking property: Good: “good” means substantially no agglomeration or clumping; Less good: “less good” means partial clumping or agglomeration; Poor: “poor” means severe or complete clumping. The source says:
The performance of the drug powder is influenced by various factors, among which the fluidity, anti-caking property and the like of the starting material drug (i.e., active pharmaceutical ingredient) play a key role in the formulation design, the quality control, the process design, the industrial production and the like of the drug. In the pharmaceutical field, poor fluidity mainly affects the uniformity of the mixed material, and such mixed material is easy to delaminate and has uneven material content; at the same time, the resulting tablet are easy to delaminate during tableting, resulting in inconsistent content of the tablet pressed at different times, and it is easy to cause a significant difference in tablet weight.
The fluidity, the anti-caking property and the like of compound 1 (i.e., (6E)-6-[(6-chloro-2-methyl-2H-indazol-5-yl)imino]-3-[(1-methyl-1H-1,2,4-triazol-3-yl)methyl]-1-(2,4,5-trifluorobenzyl)-1,3,5-triazinane-2,4-dione with different purities) in the above Comparative Examples 1-2 and Examples 1-12 were measured by an intelligent powder comprehensive characteristic tester (HMKTest LABULK, model: HMKFlow 6393 PT1000).
The Carr index reflects the quality of the fluidity, and a smaller value indicates better fluidity, while a Carr index of more than 23% generally indicates poor fluidity. For anti-caking property, “good” means substantially no agglomeration or clumping, “less good” means partial clumping or agglomeration, and “poor” means severe or complete clumping. For fluidity, “good” means good solid state and good fluidity, which is favorable for formulation development; “less good” means average fluidity; and “poor” means poor fluidity, which cannot be used for formulation development.
Similarly, the fluidity of the fumarate salt solid form of compound 1 prepared in the above Examples 28-29 and Comparative Example 3 was measured.

[1] abbreviates: solid form of compound 1, smaller value = better fluidity, more than 23% generally indicates poor fluidity.
The mark [2] stands for this setting: fumarate salt solid form of compound 1.

The structures appear in SMILES notation.

On to `Cn1cnc(Cn2c(=O)[nH]/c(=N\c3cc4cn(C)nc4cc3Cl)n(Cc3cc(F)c(F)cc3F)c2=O)n1` [Example 11, (6E)-6-[(6-chloro-2-methyl-2H-indazol-5-yl)imino]-3-[(1-methyl-1H-1,2,4-triazol-3-yl)methyl]-1-(2,4,5-trifluorobenzyl)-1,3,5-triazinane-2,4-dione], for which, for the setting “solid form of compound 1”, the Anti-caking property entry is “Good” and the Fluidity entry is reported as “Good”. The “Carr index (%)” value under setting [1] is reported as 14.1%.

Regarding `Cn1cnc(Cn2c(=O)[nH]/c(=N\c3cc4cn(C)nc4cc3Cl)n(Cc3cc(F)c(F)cc3F)c2=O)n1` [Example 8, (6E)-6-[(6-chloro-2-methyl-2H-indazol-5-yl)imino]-3-[(1-methyl-1H-1,2,4-triazol-3-yl)methyl]-1-(2,4,5-trifluorobenzyl)-1,3,5-triazinane-2,4-dione], for the setting “solid form of compound 1”, the Anti-caking property result is given as “Less good” and the Fluidity entry is “Good”. Besides, the “Carr index (%)” value under setting [1] amounted to 21.2%.

As for `Cn1cnc(Cn2c(=O)[nH]/c(=N\c3cc4cn(C)nc4cc3Cl)n(Cc3cc(F)c(F)cc3F)c2=O)n1` [Comparative Example 3, (6E)-6-[(6-chloro-2-methyl-2H-indazol-5-yl)imino]-3-[(1-methyl-1H-1,2,4-triazol-3-yl)methyl]-1-(2,4,5-trifluorobenzyl)-1,3,5-triazinane-2,4-dione, reference compound], under setting [2], the Anti-caking property result was “poor and Poor”; the “Carr index (%)” value stood at 36.1%; the Fluidity entry was “poor and Poor”.

Take `Cn1cnc(Cn2c(=O)[nH]/c(=N\c3cc4cn(C)nc4cc3Cl)n(Cc3cc(F)c(F)cc3F)c2=O)n1` [Example 4, (6E)-6-[(6-chloro-2-methyl-2H-indazol-5-yl)imino]-3-[(1-methyl-1H-1,2,4-triazol-3-yl)methyl]-1-(2,4,5-trifluorobenzyl)-1,3,5-triazinane-2,4-dione]: for the setting “solid form of compound 1”, the Anti-caking property entry is “Less good” and the Fluidity entry is listed as “Good”. Moreover, the “Carr index (%)” value under setting [1] was found to be 19.4%.

As to `Cn1cnc(Cn2c(=O)[nH]/c(=N\c3cc4cn(C)nc4cc3Cl)n(Cc3cc(F)c(F)cc3F)c2=O)n1.O=C(O)/C=C/C(=O)O` [Example 28, (6E)-6-[(6-chloro-2-methyl-2H-indazol-5-yl)imino]-3-[(1-methyl-1H-1,2,4-triazol-3-yl)methyl]-1-(2,4,5-trifluorobenzyl)-1,3,5-triazinane-2,4-dione fumarate salt], under setting [2], the Anti-caking property entry is “Good”, the “Carr index (%)” value is recorded as 11.3% and the Fluidity result is given as “Good”.

Consider `Cn1cnc(Cn2c(=O)[nH]/c(=N\c3cc4cn(C)nc4cc3Cl)n(Cc3cc(F)c(F)cc3F)c2=O)n1` [Comparative Example 1, (6E)-6-[(6-chloro-2-methyl-2H-indazol-5-yl)imino]-3-[(1-methyl-1H-1,2,4-triazol-3-yl)methyl]-1-(2,4,5-trifluorobenzyl)-1,3,5-triazinane-2,4-dione, reference compound], for which, for the setting “solid form of compound 1”, the Anti-caking property result is given as “Poor” and the Fluidity entry was “Poor”. The “Carr index (%)” value under setting [1] is reported as 42.1%.

Regarding `Cn1cnc(Cn2c(=O)[nH]/c(=N\c3cc4cn(C)nc4cc3Cl)n(Cc3cc(F)c(F)cc3F)c2=O)n1` [Example 29, (6E)-6-[(6-chloro-2-methyl-2H-indazol-5-yl)imino]-3-[(1-methyl-1H-1,2,4-triazol-3-yl)methyl]-1-(2,4,5-trifluorobenzyl)-1,3,5-triazinane-2,4-dione], under setting [2], the Anti-caking property result is “Less good”, the “Carr index (%)” value is given as 12.1% and the Fluidity entry was “Good”.

On to `Cn1cnc(Cn2c(=O)[nH]/c(=N\c3cc4cn(C)nc4cc3Cl)n(Cc3cc(F)c(F)cc3F)c2=O)n1` [Example 2, (6E)-6-[(6-chloro-2-methyl-2H-indazol-5-yl)imino]-3-[(1-methyl-1H-1,2,4-triazol-3-yl)methyl]-1-(2,4,5-trifluorobenzyl)-1,3,5-triazinane-2,4-dione], for which, for the setting “solid form of compound 1”, the Anti-caking property entry is “Less good” and the Fluidity result is “Good”. Moreover, the “Carr index (%)” value under setting [1] worked out at 20.7%.

`Cn1cnc(Cn2c(=O)[nH]/c(=N\c3cc4cn(C)nc4cc3Cl)n(Cc3cc(F)c(F)cc3F)c2=O)n1` [Example 1, (6E)-6-[(6-chloro-2-methyl-2H-indazol-5-yl)imino]-3-[(1-methyl-1H-1,2,4-triazol-3-yl)methyl]-1-(2,4,5-trifluorobenzyl)-1,3,5-triazinane-2,4-dione]: where the note is “solid form of compound 1”, the Anti-caking property result is recorded as “Less good” and the Fluidity result was “Good”. Besides, under setting [1], the “Carr index (%)” value stood at 21.4%.

Consider `Cn1cnc(Cn2c(=O)[nH]/c(=N\c3cc4cn(C)nc4cc3Cl)n(Cc3cc(F)c(F)cc3F)c2=O)n1` [Example 5, (6E)-6-[(6-chloro-2-methyl-2H-indazol-5-yl)imino]-3-[(1-methyl-1H-1,2,4-triazol-3-yl)methyl]-1-(2,4,5-trifluorobenzyl)-1,3,5-triazinane-2,4-dione], for which, where the note is “solid form of compound 1”, the Anti-caking property entry was “Less good” and the Fluidity result is “Good”. In addition, under setting [1], the “Carr index (%)” value was determined as 18.8%.

Turning to `Cn1cnc(Cn2c(=O)[nH]/c(=N\c3cc4cn(C)nc4cc3Cl)n(Cc3cc(F)c(F)cc3F)c2=O)n1` [Example 3, (6E)-6-[(6-chloro-2-methyl-2H-indazol-5-yl)imino]-3-[(1-methyl-1H-1,2,4-triazol-3-yl)methyl]-1-(2,4,5-trifluorobenzyl)-1,3,5-triazinane-2,4-dione], where the note is “solid form of compound 1”, the Anti-caking property result is given as “Less good” and the Fluidity result is recorded as “Good”. In addition, under setting [1], the “Carr index (%)” value amounted to 18.7%.

On to `Cn1cnc(Cn2c(=O)[nH]/c(=N\c3cc4cn(C)nc4cc3Cl)n(Cc3cc(F)c(F)cc3F)c2=O)n1` [Example 9, (6E)-6-[(6-chloro-2-methyl-2H-indazol-5-yl)imino]-3-[(1-methyl-1H-1,2,4-triazol-3-yl)methyl]-1-(2,4,5-trifluorobenzyl)-1,3,5-triazinane-2,4-dione], for which, for the setting “solid form of compound 1”, the Anti-caking property entry is “Good” and the Fluidity entry is on record as “Good”. Further, under setting [1], the “Carr index (%)” value is on record as 12.6%.

Consider `Cn1cnc(Cn2c(=O)[nH]/c(=N\c3cc4cn(C)nc4cc3Cl)n(Cc3cc(F)c(F)cc3F)c2=O)n1` [Example 10, (6E)-6-[(6-chloro-2-methyl-2H-indazol-5-yl)imino]-3-[(1-methyl-1H-1,2,4-triazol-3-yl)methyl]-1-(2,4,5-trifluorobenzyl)-1,3,5-triazinane-2,4-dione], for which, for the setting “solid form of compound 1”, the Anti-caking property result was “Good” and the Fluidity entry is on record as “Good”. Further, under setting [1], the “Carr index (%)” value is listed as 13.4%.

Consider `Cn1cnc(Cn2c(=O)[nH]/c(=N\c3cc4cn(C)nc4cc3Cl)n(Cc3cc(F)c(F)cc3F)c2=O)n1` [Example 12, (6E)-6-[(6-chloro-2-methyl-2H-indazol-5-yl)imino]-3-[(1-methyl-1H-1,2,4-triazol-3-yl)methyl]-1-(2,4,5-trifluorobenzyl)-1,3,5-triazinane-2,4-dione], for which, under “solid form of compound 1”, the Anti-caking property entry is given as “Good” and the Fluidity entry is listed as “Good”. For the same compound, the “Carr index (%)” value under setting [1] is 15.1%.

Turning to `Cn1cnc(Cn2c(=O)[nH]/c(=N\c3cc4cn(C)nc4cc3Cl)n(Cc3cc(F)c(F)cc3F)c2=O)n1` [Comparative Example 2, (6E)-6-[(6-chloro-2-methyl-2H-indazol-5-yl)imino]-3-[(1-methyl-1H-1,2,4-triazol-3-yl)methyl]-1-(2,4,5-trifluorobenzyl)-1,3,5-triazinane-2,4-dione, reference compound], where the note is “solid form of compound 1”, the Anti-caking property entry is “Poor” and the Fluidity result was “Poor”. For the same compound, under setting [1], the “Carr index (%)” value was 39.4%.

With `Cn1cnc(Cn2c(=O)[nH]/c(=N\c3cc4cn(C)nc4cc3Cl)n(Cc3cc(F)c(F)cc3F)c2=O)n1` [Example 7, (6E)-6-[(6-chloro-2-methyl-2H-indazol-5-yl)imino]-3-[(1-methyl-1H-1,2,4-triazol-3-yl)methyl]-1-(2,4,5-trifluorobenzyl)-1,3,5-triazinane-2,4-dione], under “solid form of compound 1”, the Anti-caking property entry is “Less good” and the Fluidity result is listed as “Good”. Further, the “Carr index (%)” value under setting [1] amounted to 17.1%.

As for `Cn1cnc(Cn2c(=O)[nH]/c(=N\c3cc4cn(C)nc4cc3Cl)n(Cc3cc(F)c(F)cc3F)c2=O)n1` [Example 6, (6E)-6-[(6-chloro-2-methyl-2H-indazol-5-yl)imino]-3-[(1-methyl-1H-1,2,4-triazol-3-yl)methyl]-1-(2,4,5-trifluorobenzyl)-1,3,5-triazinane-2,4-dione], for the setting “solid form of compound 1”, the Anti-caking property entry was “Less good” and the Fluidity entry is given as “Good”. For the same compound, the “Carr index (%)” value under setting [1] was 18.5%.
